Reference: patent publication US20250255848A1, “SUBSTITUTED 6,7-DIHYDRO-5H-BENZO[7]ANNULENE DERIVATIVES, PROCESSES FOR THEIR PREPARATION AND THERAPEUTIC USES THEREOF” (SANOFI, priority 2022, published 2025)

Molecular target: ERα (Homo sapiens (Human), UniProt P03372)
Assay: Estrogen receptor degradation activity: breast cancer cell ERα in cell western assay
Format: cell-based
Settings: MCF7 cells; for % Degradation At 0.3 μM: 4 hours, normalised to fulvestrant 0.1 μM and DMSO; for IC50: 4 hours post compound addition, concentration which degrades 50% of the estrogen receptor
Experimental: Said test involves measuring the in vitro degradation activity of the compounds of the Table 1a.
The measurements of the degradation activities were made using a breast cancer cell ERα in cell western assay as described hereunder.
MCF7 cells (ATCC) were seeded in 384 wells microplate (collagen coated) at a concentration of 10000 cells/30 μL per well in red phenol free MEM alpha medium (invitrogen) containing 5% charcoal dextran striped FBS. The following day, 9 points serial 1:5 dilution of each compound was added to the cells in 2.5 μL at final concentrations ranging from 0.3-0.0000018 μM (in table 2), or 0.1 μM for fulvestrant (using as positive control). At 4 hours post compound addition the cells were fixed by adding 25 μL of formalin (final concentration 5% formalin containing 0.1% triton) for 10 minutes at room temperature and then washed twice with PBS. Then, 50 μL of LI-COR blocking buffer containing 0.1% Triton was added to plate for 30 minutes at room temperature. LI-COR blocking buffer was removed and cells were incubated overnight at cold room with 50 μL anti-ER rabbit monoclonal antibody (Thermo scientific MA1-39540) diluted at 1:1000 in LI-COR blocking buffer containing 0.1% tween-20. Wells which were treated with blocking buffer but no antibody were used as background control. Wells were washed twice with PBS (0.1% tween-20) and incubated at 37° C. for 60 minutes in LI-COR (0.1% tween-20) containing goat anti-rabbit antibody Alexa 488 (1:1000) and Syto-64 a DNA dye (2 μM final concentration). Cells were then washed 3 times in PBS and scanned in ACUMEN explorer (TTP-Labtech). Integrated intensities in the green fluorescence and red fluorescence were measured to determine the levels of ERα and DNA respectively.
The degradation activity with respect to estrogen receptors in this test is given by the concentration which degrades 50% of the estrogen receptor (or IC50) in nM.
The % of ERα levels decrease were determined as follows: % inhibition=100*(1−(sample−fulvestrant:DMSO−fulvestrant)).

Chain of ERα (P03372 whole entry): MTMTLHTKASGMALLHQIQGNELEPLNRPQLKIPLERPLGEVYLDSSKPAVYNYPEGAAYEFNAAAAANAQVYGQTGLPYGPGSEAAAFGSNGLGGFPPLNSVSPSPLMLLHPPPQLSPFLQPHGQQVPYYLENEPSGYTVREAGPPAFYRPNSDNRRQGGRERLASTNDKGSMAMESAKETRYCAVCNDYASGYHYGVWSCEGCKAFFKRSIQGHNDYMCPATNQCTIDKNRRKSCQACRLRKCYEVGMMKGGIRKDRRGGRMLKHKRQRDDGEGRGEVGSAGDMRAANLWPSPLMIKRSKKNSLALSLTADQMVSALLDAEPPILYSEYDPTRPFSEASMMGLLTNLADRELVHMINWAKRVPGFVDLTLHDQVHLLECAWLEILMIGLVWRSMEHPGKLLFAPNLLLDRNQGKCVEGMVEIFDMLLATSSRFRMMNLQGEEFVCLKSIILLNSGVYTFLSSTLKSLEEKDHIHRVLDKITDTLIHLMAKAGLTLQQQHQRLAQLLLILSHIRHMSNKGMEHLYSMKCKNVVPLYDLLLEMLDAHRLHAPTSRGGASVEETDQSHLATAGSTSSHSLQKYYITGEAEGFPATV

Row | % Degradation At 0.3 μM | IC50 | Compound
1 | 91% | 400 pM | Cc1ccc(C2=C(c3ccc(C=C4CN(CCCF)C4)cc3)c3ccc(C(=O)O)cc3CCC2)c(C)c1Cl [Compound 13, 8-(3-chloro-2,4-dimethylphenyl)-9-(4-((1-(3-fluoropropyl)azetidin-3-ylidene)methyl)phenyl)-6,7-dihydro-5H-benzo[7]annulene-3-carboxylic acid]
2 | 95% | 700 pM | Cc1cccc(OC(F)(F)F)c1C1=C(c2ccc(C=C3CN(CCCF)C3)cc2)c2ccc(C(=O)O)cc2CCC1 [Compound 77, 9-(4-((1-(3-fluoropropyl)azetidin-3-ylidene)methyl)phenyl)-8-(2-methyl-6-(trifluoromethoxy)phenyl)-6,7-dihydro-5H-benzo[7]annulene-3-carboxylic acid]
3 | 93% | 500 pM | COc1c(Cl)cccc1C1=C(c2ccc(C=C3CN(CCCF)C3)cc2)c2ccc(C(=O)O)cc2CCC1 [Compound 49, 8-(3-chloro-2-methoxyphenyl)-9-(4-((1-(3-fluoropropyl)azetidin-3-ylidene)methyl)phenyl)-6,7-dihydro-5H-benzo[7]annulene-3-carboxylic acid]
4 | 91% | 400 pM | COc1cccc(Cl)c1C1=C(c2ccc(C=C3CN(CCCF)C3)cc2)c2ccc(C(=O)O)cc2CCC1 [Compound 23, 8-(2-chloro-6-methoxyphenyl)-9-(4-((1-(3-fluoropropyl)azetidin-3-ylidene)methyl)phenyl)-6,7-dihydro-5H-benzo[7]annulene-3-carboxylic acid]
5 | 93% | 500 pM | COc1ccc(C2=C(c3ccc(C=C4CN(CCCF)C4)cc3)c3ccc(C(=O)O)cc3CCC2)c(C(F)(F)F)c1 [Compound 62, 9-(4-((1-(3-fluoropropyl)azetidin-3-ylidene)methyl)phenyl)-8-(4-methoxy-2-(trifluoromethyl)phenyl)-6,7-dihydro-5H-benzo[7]annulene-3-carboxylic acid]
6 | 92% | 300 pM | Cc1cccc(C(F)(F)F)c1C1=C(c2ccc(C=C3CN(CCCF)C3)cc2)c2ccc(C(=O)O)cc2CCC1 [Compound 1, 9-(4-((1-(3-fluoropropyl)azetidin-3-ylidene)methyl)phenyl)-8-(2-methyl-6-(trifluoromethyl)phenyl)-6,7-dihydro-5H-benzo[7]annulene-3-carboxylic acid]
7 | 94% | 1000 pM | COc1c(C2=C(c3ccc(C=C4CN(CCCF)C4)cc3)c3ccc(C(=O)O)cc3CCC2)cccc1C(F)(F)F [Compound 63, 9-(4-((1-(3-fluoropropyl)azetidin-3-ylidene)methyl)phenyl)-8-(2-methoxy-3-(trifluoromethyl)phenyl)-6,7-dihydro-5H-benzo[7]annulene-3-carboxylic acid]
8 | 95% | 500 pM | COc1cc(C(F)(F)F)cc(C(F)(F)F)c1C1=C(c2ccc(C=C3CN(CCCF)C3)cc2)c2ccc(C(=O)O)cc2CCC1 [Compound 71, 9-(4-((1-(3-fluoropropyl)azetidin-3-ylidene)methyl)phenyl)-8-(2-methoxy-4,6-bis(trifluoromethyl)phenyl)-6,7-dihydro-5H-benzo[7]annulene-3-carboxylic acid]
9 | 90% | 800 pM | CCc1cccc(CC)c1C1=C(c2ccc(C=C3CN(CCCF)C3)cc2)c2ccc(C(=O)O)cc2CCC1 [Compound 74, 8-(2,6-diethylphenyl)-9-(4-((1-(3-fluoropropyl)azetidin-3-ylidene)methyl)phenyl)-6,7-dihydro-5H-benzo[7]annulene-3-carboxylic acid]
10 | 91% | 1200 pM | Cc1cc(C2=C(c3ccc(C=C4CN(CCCF)C4)cc3)c3ccc(C(=O)O)cc3CCC2)ccc1C(F)(F)F [Compound 53, 9-(4-((1-(3-fluoropropyl)azetidin-3-ylidene)methyl)phenyl)-8-(3-methyl-4-(trifluoromethyl)phenyl)-6,7-dihydro-5H-benzo[7]annulene-3-carboxylic acid]
